Data as given in patent publication US7034045B1, “Monofluoroalkyl derivatives” (Eli Lilly and Company, priority 1999, dated 2006).

melting point: 155 to 157 °C
Compound: CC(C)S(=O)(=O)NCC(C)(F)c1ccc(-c2ccc(CC#N)cc2)cc1 (stereo not shown) [Example 9, 2-{4-[4-(1-Fluoro-1-methyl-2-{[(methylethyl)sulfonyl]amino}ethyl)phenyl]phenyl}ethanenitrile]
